Source: article PMC6754500, “Ultra-long-acting tunable biodegradable and removable controlled release implants for drug delivery” (Nature Communications, 2019)
≈ marks a conversion by molar mass, not a printed value. Structures can show the parent of a compound that is named as a salt. Where two headings read alike, the source gives them in different places.

Assays:
[1] = Saturation concentration (solubility) of drugs in NMP; format: physicochemical; conditions: quantified by HPLC; for solubility at 24 h: 40 °C, organic solvent or mixture, thermodynamic from solid
Experimental: The saturation concentration of a panel of fourteen (14) antiretroviral drugs in NMP was determined. For each drug, 100 mg was weighed into individual vials and 100 mg of NMP was added to each vial. The mixture was stirred at 40 °C for 24 h. […] Sample aliquots (1–2 mg, n = 4) were collected from the saturated supernatant and diluted with acetonitrile (ACN). Drug concentration in the saturated aliquots was determined by HPLC analysis.

[2] = cited from earlier work; for pKa: Supplementary Table 1; for LogP: log of drug partition coefficient, ref drugbank.ca
[3] = tested on: HIV-1; conditions: cited from earlier work; for IC90: Supplementary Table 1
[4] = tested on: HIV-1JR-CSF; assay: In vitro HIV-1 inhibition in TZM-bl cells; format: cell-based; conditions: Human immunodeficiency virus 1, read-out: Effective concentration required to inhibit virus replication by 50% (IC50), DTG eluted (24 h in PBS) from solidified DTG-ISFI stored 6 months at 25 °C
Experimental: DTG-ISFI formulation was stored for 6 months at 25 °C and then solidified in PBS. The concentration of DTG eluted from the solidified implant after 24 h incubation in PBS was determined by HPLC and its HIV inhibitory activity was assessed using TZM-bl cells as described in the methods section.
Viral particles were collected in tissue culture medium that was centrifugated at 2000×g for 20 min at 4 °C to remove cell debris. […] Infected TZM-bl cells were stained using a solution containing 4 µM potassium ferrocyanide, 4 µM potassium ferricyanide, 2 µM magnesium chloride, 0.4 mg/ml X-gal[55],[56] and stained cells counted. TZM-bl cells were cultured at 37 °C 10% CO2 in TZM-bl medium (Dulbecco’s Modified Eagle Medium (Sigma) supplemented with 10% heat-inactivated fetal bovine serum, 25 mM HEPES, 500 units/ml penicillin, 50 µg/ml streptomycin and 2 mM L-glutamine (Cellgro)), and regularly checked for morphology by microscope.
Cells were regularly checked for morphology by microscopy. […] Luciferase activity was measured with a SpectraMax M3 Spectrometer (Molecular Devices, Sunnyvale, CA) and the results normalized to the luciferase activity of cells infected with HIV in the absence of DTG and expressed as a percentage of decrease in luciferase activity. Activity was measured in 3 independent experiments, each dilution measured in quadruplicate.

[5] = Saturation solubility in PBS with or without 2% solutol; format: physicochemical; conditions: for solubility: HPLC
[6] = pH 7; cited from earlier work

For `COC(=O)N[C@H](C(=O)N[C@@H](Cc1ccccc1)[C@@H](O)CN(Cc1ccc(-c2ccccn2)cc1)NC(=O)[C@@H](NC(=O)OC)C(C)(C)C)C(C)(C)C` [Atazanavir], the solubility at 24 h ([1]; N-methyl-2-pyrrolidone (NMP)) is listed as 328 ± 2 mg/mL (≈ 465 mM), the pKa [2] is listed as 4.3 and the LogP [2] is listed as 4.5. For the same compound, the “Protein-adjusted IC90 (PA-IC90)” value [3] was 0.014 µg/mL.

In the case of `CC(C)CN(C[C@@H](O)[C@H](Cc1ccccc1)NC(=O)O[C@H]1CO[C@H]2OCC[C@H]21)S(=O)(=O)c1ccc(N)cc1` [Darunavir], the solubility at 24 h ([1]; N-methyl-2-pyrrolidone) is given as 511 ± 2 mg/mL (≈ 933 mM), the IC90 [3] is given as 0.00243 µg/mL (≈ 4.44e-06 mM) and the “Protein-adjusted IC90 (PA-IC90)” value [3] is given as 0.0024 µg/mL.

With `C[C@@H]1CCO[C@H]2Cn3cc(C(=O)NCc4ccc(F)cc4F)c(=O)c(O)c3C(=O)N12` [Dolutegravir] the solubility at 24 h ([1]; N-methyl-2-pyrrolidone (NMP)) was 255 ± 4 mg/mL (≈ 608 mM), the IC50 [4] was 0.0021 µg/mL (≈ 5.01e-06 mM) and the “Solubility in PBS + 2% solutol relative to PBS with no solutol” value ([5]; 37 °C) was ~ 6 fold. The solubility ([5]; PBS + 2% solutol, pH 7.4, aqueous with cosolvent or surfactant or cyclodextrin, thermodynamic from solid, 37 °C) was 0.564 ± 0.0036 mg/mL, the solubility ([5]; PBS with no solutol, 37 °C, read-out: Solubility in PBS with no solutol) was 0.091 mg/mL (≈ 0.217 mM) and the LogP [2] was 2.2. For the same compound, the “in vitro protein-adjusted IC90 for HIV-1” value [3] was 0.064 µg/mL.

For `O=C1Nc2ccc(Cl)cc2[C@@](C#CC2CC2)(C(F)(F)F)O1` [Efavirenz], the solubility at 24 h ([1]; N-methyl-2-pyrrolidone (NMP)) is listed as 118 ± 2 mg/mL (≈ 374 mM) and the LogP [2] is listed as 4.6.

For `Nc1nc(=O)n([C@@H]2CS[C@H](CO)O2)cc1F` [Emtricitabine], the solubility at 24 h ([1]; N-methyl-2-pyrrolidone (NMP)) is listed as 202 ± 3 mg/mL (≈ 817 mM) and the IC90 [3] is listed as 0.051 µg/mL (≈ 0.000206 mM).

For `Cc1cc(C#N)cc(C)c1Oc1nc(Nc2ccc(C#N)cc2)nc(N)c1Br` [Etravirine], the solubility at 24 h ([1]; N-methyl-2-pyrrolidone (NMP)) is given as 122 ± 2 mg/mL (≈ 280 mM), the pKa [2] is given as 3.75 and the LogP [2] is given as 5.54. The IC90 [3] was 0.0013 µg/mL (≈ 2.99e-06 mM).

Work on `Nc1ccn([C@@H]2CS[C@H](CO)O2)c(=O)n1` [Lamivudine] yielded a solubility at 24 h ([1]; N-methyl-2-pyrrolidone (NMP)) of 250 ± 3 mg/mL (≈ 1090 mM).

For `CCN1C[C@H](C)n2c(c(O)c3c(=O)n(Cc4ccc(F)c(Cl)c4)nc(C(=O)NC)c32)C1=O` [MK-2048], the “Saturation solubility in NMP” value ([1]; N-methyl-2-pyrrolidone) is listed as 715 ± 5 mg/mL, the “Solubility in PBS + 2% solutol relative to PBS with no solutol” value ([5]; pH 7.4) is listed as ~ 9 fold and the Solubility in water [6] is listed as less than 0.1 mg/mL. For the same compound, the “in vitro 90% inhibitory concentration (IC90)” value ([3]; against HIV-1) was ~ 0.033 μg/mL and the “Protein-adjusted IC90 (PA-IC90)” value [3] was 0.033 µg/mL.

For `Cc1ccnc2c1NC(=O)c1cccnc1N2C1CC1` [Nevirapine], the pKa [2] is given as 2.8, the LogP [2] is given as 2.5 and the IC90 [3] is given as 0.04 µg/mL (≈ 0.00015 mM).

In the case of `Cc1nnc(C(=O)NC(C)(C)c2nc(C(=O)NCc3ccc(F)cc3)c(O)c(=O)n2C)o1` [Raltegravir], the solubility at 24 h ([1]; N-methyl-2-pyrrolidone) is listed as 54 ± 2 mg/mL (≈ 122 mM), the pKa [2] is listed as 6.3 and the LogP [2] is listed as -0.39. For the same compound, the IC90 [3] was 0.00053 µg/mL (≈ 1.19e-06 mM).

In the case of `Cc1cc(/C=C/C#N)cc(C)c1Nc1ccnc(Nc2ccc(C#N)cc2)n1` [Rilpivirine], the solubility at 24 h ([1]; N-methyl-2-pyrrolidone (NMP)) is listed as 228 ± 5 mg/mL (≈ 622 mM), the LogP [2] is listed as 4.86 and the IC90 [3] is listed as 0.0125 µg/mL (≈ 3.41e-05 mM). For the same compound, the “Protein-adjusted IC90 (PA-IC90)” value [3] was 0.012 µg/mL.

For `CC(C)c1nc(CN(C)C(=O)N[C@H](C(=O)N[C@@H](Cc2ccccc2)C[C@H](O)[C@H](Cc2ccccc2)NC(=O)OCc2cncs2)C(C)C)cs1` [Ritonavir], the IC90 [3] is listed as 2.1 µg/mL (≈ 0.00291 mM).

For `Cc1cn([C@H]2C=C[C@@H](CO)O2)c(=O)[nH]c1=O` [Stavudine], the solubility at 24 h ([1]; N-methyl-2-pyrrolidone (NMP)) is listed as 248 ± 3 mg/mL (≈ 1110 mM), the pKa [2] is listed as 10.26 and the LogP [2] is listed as -0.7. For the same compound, the IC90 [3] was 0.03 to 0.3 µg/mL.

For `CC(C)OC(=O)OCOP(=O)(CO[C@H](C)Cn1cnc2c(N)ncnc21)OCOC(=O)OC(C)C` [TenofovirDisoproxil Fumarate], the solubility at 24 h ([1]; N-methyl-2-pyrrolidone (NMP)) is given as 156 ± 2 mg/mL and the IC90 [3] is given as 0.00554 µg/mL.
